According to US7479484B2, “Peptides and peptidomimetics having immune-modulating, anti-inflammatory, and anti-viral activity” (priority 2003, dated 2009):
In brackets after ≈: the same amount, converted by molar mass. Several values for one entry are separate records, joined by “and”; a condition that tells them apart may be missing. Equal entries are not always repeated. Structures can show the parent of a compound that is named as a salt. Where two headings read alike, the source gives them in different places. Marks after values point to notes of the source that are not given here. Where a SMILES comes first, the peptide text is derived from it. [ ]: non-standard residue; d: D form. dPhe(F5) = N[C@H](Cc1c(F)c(F)c(F)c(F)c1F)C(=O)O; dBpa = N[C@H](Cc1ccc(C(=O)c2ccccc2)cc1)C(=O)O; dCha = N[C@H](CC1CCCCC1)C(=O)O

Tests used:
[1] = tested on: passive cutaneous anaphylaxis (PCA); assay: Passive cutaneous anaphylaxis (PCA) in rats; type: in vivo, Wistar rats; settings: rat, IP; for PCA Response 1st Spot / PCA Response 2nd Spot: weal score per animal (N 1-3); for % Inhibition: relative to vehicle control group; for Total PCA Response: sum of scores of 3 animals
Method: CBP501 (SEQ ID NO: 80) was evaluated for anti-allergic activity in a model of passive cutaneous anaphylaxis (PCA) in Wistar rats. CBP501, at doses of 20, 10, and 5 mg/kg, was administered intraperitoneally (IP) 30 minutes before challenge with a mixture of ovalbumin and Evans Blue dye.
CBP501 was dissolved in 0.9% NaCl. CBP501, at 20, 10 and 5 mg/kg, was administered intraperitoneally (IP) 30 min before challenge with a mixture of ovalbumin and Evans Blue dye.
Animals: Male or female Wistar rats were provided by the animal breeding center of MDS Pharma Services-Taiwan Ltd. Space allocation for 6 animals was 45×23×21 cm. All animals were maintained in a hygienic environment in a controlled temperature (21.5-22.5° C.) and humidity (50%-70%) environment, with 12 hour light-dark cycles for at least one week, housed in the MDS Pharma Services-Taiwan Laboratory, prior to being used. All aspects of this work including housing, experimentation and disposal of animals were performed in general accordance with the International Guiding Principles for Biomedical Research Involving Animals (CIOMS Publication No. ISBN 92 90360194, 1985).
Chemicals: Cyproheptadine-HCl (RBI-USA), ethanol absolute (Merck, Germany), distilled water (in-house), Evans Blue (Fluka, Switzerland), and ovalbumin (Sigma-Aldrich, USA) were used.
Method of administration: Five groups of three (3) Wistar-derived male rats weighing 80+/−10 g were passively sensitized 16 hours earlier by intradermal injection of reaginic (IgE) antiovalbumin serum (0.05 ml) on two spots of the dorsal surface. […] Within 30 minutes after administration of CBP501, the animals were challenged intravenously (IV) with a mixture of ovalbumin (1 mg) and Evans Blue dye (5 mg). Animals were sacrificed 30 minutes after challenge.
Results: Two measured weal diameters were averaged for each animal and scored 0 if <0.05 cm, 1 if 0.05-0.2 cm, 2 if 0.2-0.4 cm, 3 if 0.4-0.6 cm, 4 if 0.6-0.8 cm and 5 if >0.8 cm. Maximum possible score for each animal totals 2×5=10. Inhibition of the resulting PCA blue colored weal by 50 percent or more relative to the vehicle control group indicates possible antiallergic activity. Results are shown in Table 1, below, where significant changes are indicated by an asterisk(*).

HIV-1 strain Ba-L = assay: Inhibition of HIV-1 replication in human monocyte/macrophages (extracellular p24); type: cell-based; settings: HIV-1 strain Ba-L in monocyte/macrophages
Method: (§1) CBP501 was evaluated for antiviral activity in monocyte/macrophages using the HIV strain Ba-L. Monocyte/macrophages were derived from normal HIV-1-negative donors, and cultured under conditions which promote cell survival and HIV replication. Antiviral activity was measured by detecting the amount of extracellular HIV-1p24 protein in a sample, where a decrease in p24 levels indicated antiviral activity. Cytotoxity was measured by a tetrazolium dye reduction method. Antiviral activity was analyzed for a series of dilutions of a stock solution of 100 μg/ml CBP501. The experiments were performed using serial dilutions of the compound, generating a series of concentrations from 0.3125 to 80 μg/ml CBP501.

[2] = tested on: peripheral blood mononuclear cells (PBMC); assay: Cytotoxicity in PBMC (tetrazolium dye reduction); type: cell-based
Method: (§2) CBP501 was tested for antiviral activity against HIV-1 in peripheral blood mononuclear cells (PBMC) using the clinical pediatric HIV strain WeJo. PBMCs were derived from normal HIV-1-negative donors, and cultured under conditions which promote cell survival and HIV replication. Antiviral activity was measured by detecting the amount of extracellular HIV-1p24 protein in a sample, where a decrease in p24 levels indicated antiviral activity. Cytotoxity was measured by a tetrazolium dye reduction method. Antiviral activity was analyzed for a series of dilutions of a stock solution of 100 μg/ml CBP501. The experiments were performed using serial dilutions of the compound, generating a series of concentrations from 0.3125 to 80 μg/ml CBP501.

[3] = Cytotoxicity in PBMC (tetrazolium dye reduction); type: cell-based; settings: human, peripheral blood mononuclear cells (PBMC), highest concentration tested 80 μg/ml, called an estimate, read-out: TC50 (concentration decreasing cell viability by 50%)
Method: as §2

[4] = tested on: kinases involved in the cell cycle G2 checkpoint, including mitogen activated kinase p38; settings: as disclosed in U.S. application Ser. No. 10/347,145; cited from earlier work
HIV-1 strain WeJo = assay: Inhibition of HIV-1 replication in PBMC (extracellular p24); type: cell-based; settings: HIV-1 strain WeJo in PBMC
Method: as §2

[5] = tested on: adjuvant-induced arthritis; settings: rat
monocyte/macrophages = assay: Cytotoxicity in monocyte/macrophages (tetrazolium dye reduction); type: cell-based, human
Method: as §1

[6] = as above; type: cell-based, human; settings: human, highest concentration tested 80 μg/ml, called an estimate, read-out: TC50 (concentration decreasing cell viability by 50%)
Method: as §1

14-3-3 protein = settings: as disclosed in U.S. application Ser. No. 10/347,145; cited from earlier work
[7] = 5 mg/kg, 30 min before challenge
[8] = 10 mg/kg, 30 min before challenge
[9] = 20 mg/kg, 30 min before challenge
[10] = highest concentration tested 80 μg/ml, called an estimate

## N=C(N)NCCC[C@@H](NC(=O)[C@@H](CCCNC(=N)N)NC(=O)[C@@H](CCC(N)=O)NC(=O)[C@@H](CCCNC(=N)N)NC(=O)[C@@H](CCCNC(=N)N)NC(=O)[C@@H](CCCNC(=N)N)NC(=O)[C@@H](CC1CCCCC1)NC(=O)[C@@H](Cc1c(F)c(F)c(F)c(F)c1F)NC(=O)[C@@H](CO)NC(=O)[C@@H](Cc1c[nH]c2ccccc12)NC(=O)[C@@H](CO)NC(=O)[C@H](N)Cc1ccc(C(=O)c2ccccc2)cc1)C(=O)O [CBP501, (d-Bpa)(d-Ser)(d-Trp)(d-Ser)(d-Phe-2,3,4,5,6-F)(d-Cha)(d-Arg)(d-Arg)(d-Arg)(d-Gln)(d-Arg)(d-Arg)] (H-[dBpa][dS][dW][dS][dPhe(F5)][dCha][dR][dR][dR][dQ][dR][dR]-OH)
[1]; [7]
  PCA Response 1st Spot: 0 (0 if <0.05 cm) and 1 (1 if 0.05-0.2 cm) (2×)
  PCA Response 2nd Spot: 0 (0 if <0.05 cm) and 1 (1 if 0.05-0.2 cm) (2×)
[1]; 5 mg/kg, 5 mg/kg
  % Inhibition: 87%
[1]; 5 mg/kg
  Total PCA Response: 4
[1]; [8]
  PCA Response 1st Spot: 0 (0 if <0.05 cm) (2×) and 1 (1 if 0.05-0.2 cm)
  PCA Response 2nd Spot: 0 (0 if <0.05 cm) (2×) and 1 (1 if 0.05-0.2 cm)
[1]; 10 mg/kg, 10 mg/kg
  % Inhibition: 93%
[1]; 10 mg/kg
  Total PCA Response: 2
[1]; [9]
  PCA Response 1st Spot: 0 (0 if <0.05 cm) (2×) and 1 (1 if 0.05-0.2 cm)
  PCA Response 2nd Spot: 0 (0 if <0.05 cm) (2×) and 1 (1 if 0.05-0.2 cm)
[1]; 20 mg/kg, 20 mg/kg
  % Inhibition: 93%
[1]; 20 mg/kg
  Total PCA Response: 2
HIV-1 strain Ba-L
  TI (therapeutic index=TC50/IC50): > 12.3
HIV-1 strain Ba-L; p24
  IC50 (concentration that inhibited virus replication by 50%): 6.5 µg/mL (≈ 3.37 µM)
[2]; 80 μg/ml
  cell viability at the highest concentration tested (in words): hardly affected
[2]; [10]
  TC50 (concentration decreasing cell viability by 50%): > 80 µg/mL
[3]
  CC50: > 80 µg/mL
[4]
  inhibition of phosphorylation activities of kinases involved in the cell cycle G2 checkpoint (in words): inhibits the phosphorylation activities
HIV-1 strain WeJo
  TI (therapeutic index=TC50/IC50): > 113
HIV-1 strain WeJo; p24
  IC50 (concentration that inhibited virus replication by 50%): 0.71 µg/mL (≈ 0.368 µM)
[5]; IP, 2.5 mg/kg ×5 doses
  activity in acute phase (in words): moderate but non-significant activity
  activity in late phase (in words): no activity
[5]; IP, 5 mg/kg once daily for 5 consecutive days
  anti-inflammatory activity in both acute and late phase (in words): significant anti-inflammatory activity
[5]; IP, 10 mg/kg single dose
  anti-inflammatory activity in both acute and late phase (in words): significant anti-inflammatory activity
[5]; in vivo, ip, 2.5 mg/kg
  % Inhibition relative to Vehicle treated control, Days (1-5): 27%
  % Inhibition relative to Vehicle treated control, Days (14-18): −11%
[5]; in vivo, ip, 5 mg/kg
  % Inhibition relative to Vehicle treated control, Days (1-5): 51* %
  % Inhibition relative to Vehicle treated control, Days (14-18): 34* %
[5]; in vivo, ip, 10 mg/kg
  % Inhibition relative to Vehicle treated control, Days (1-5): 61* %
  % Inhibition relative to Vehicle treated control, Days (14-18): 31* %
monocyte/macrophages; 80 μg/ml
  decrease of cell viability at the highest concentration tested: about 25%
monocyte/macrophages; [10]
  TC50 (concentration decreasing cell viability by 50%): > 80 µg/mL
[6]
  CC50: > 80 µg/mL
14-3-3 protein
  binding to 14-3-3 protein (in words): binds

## CN1CCC(=C2c3ccccc3C=Cc3ccccc32)CC1 [Cyproheptadine, Cyproheptadine-HCl, reference compound]
[1]; 1 mg/kg, 1 mg/kg
  % Inhibition: 87* %
[1]; 1 mg/kg, listed as cyproheptadine-HCl, 1 mg/kg
  % Inhibition: 87%
[1]; 1 mg/kg
  Total PCA Response: 4
  PCA Response 1st Spot: 0 (0 if <0.05 cm) and 1 (1 if 0.05-0.2 cm) (2×)
  PCA Response 2nd Spot: 0 (0 if <0.05 cm) and 1 (1 if 0.05-0.2 cm) (2×)

## C[C@]12CCC(=O)C=C1CC[C@@H]1[C@@H]2[C@@H](O)C[C@@]2(C)[C@H]1CC[C@]2(O)C(=O)CO [Hydrocortisone, hydrocortisone, reference compound]
[5]; 30 mg/kg daily for 5 days
  activity in the acute phase (in words): significant activity
  activity in the late phase (in words): near-significant activity
[5]; PO, 30 mg/kg per dose × 5 doses, left hind paw volume, late phase
  % Inhibition relative to Vehicle treated control, Days (14-18): 29%
[5]; PO, 30 mg/kg per dose × 5 doses, right hind paw volume, acute phase
  % Inhibition relative to Vehicle treated control, Days (1-5): 42* %
